Tests used:
HL-60 = experiment: Cytotoxicity against human HL60 cells after 2 days by MTT assay; type: functional, cell-based; conditions: HL-60, 48 h
[1] = target: T1, Proteasome Macropain subunit MB1 (Homo sapiens, UniProt P28074); experiment: Inhibition of human erythrocyte 20s proteasome chymotrypsin-like activity using Suc-LLVY-MCA as substrate pretreated for 10 mins followed by substrate addition measured after 3 hrs by spectrophotometric method
T1 sequence (P28074 whole entry): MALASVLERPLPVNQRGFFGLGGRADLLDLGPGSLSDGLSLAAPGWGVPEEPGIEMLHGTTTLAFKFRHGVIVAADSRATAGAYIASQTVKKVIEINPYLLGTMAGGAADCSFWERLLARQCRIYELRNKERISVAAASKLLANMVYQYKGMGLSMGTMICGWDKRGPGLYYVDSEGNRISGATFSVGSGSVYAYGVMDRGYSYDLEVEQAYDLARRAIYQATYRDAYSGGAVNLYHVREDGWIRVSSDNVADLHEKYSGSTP

- IC50 [1]: 18.5 µM
SMILES: C=C1CC[C@H]2C(C)(C)[C@H](O)CC[C@]2(C)[C@H]1CC1=C(O)C(=O)C2=C(C1=O)[C@@]13C=C[C@@H](O)[C@H](O)[C@]1(C2)C(=O)c1c(O)cc(C)cc1C3=O
- IC50 (HL-60): 9.3 µM
